Measurements: patent US4791215A, “Derivatives of glutamic acid and aspartic acid” (priority 1984, dated 1988)
Values joined by “and” are separate entries in the source; they are usually repeats but may differ in a detail not shown here. Identical values can stand only once.

Columns and labels:
biliary flow = experiment: Biliary flow (choleretic activity); format: in vivo, rat
Description: The following experiment was carried out: a cannula was inserted in the bile duct of a rat anaesthetised with urethane, together with a small needle connected to a polythene tube, and the bile liquid was thus collected. The collection was carried out for one hour before the intravenous administration of the tested compounds and for a further two hours after administration, the samples collected at 30 minute intervals being weighed.
In order to prevent possible dehydration of the animals, 0.5 ml of physiological solution was administered at 30 minute intervals up to a total of 3 ml.

[1] = test system: CCK-8 induced contraction of guinea pig gall bladder; experiment: Anti-CCK activity on gall bladder strips in vitro; details: CCK-8 10 ng/ml
How it was run: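 Longitudinal guinea pig gall bladder strips in Krebs at 32 °C, gassed with O2/CO2 95:5, were contracted with 10 ng/ml CCK-8. Isometric force was recorded across several compound concentrations, and ED50 was taken as the μg/ml concentration antagonising 50% of the CCK contraction.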

[2] = test system: CCK-8 induced contraction of guinea pig gall bladder; experiment: Anti-CCK-8 activity on gall bladders in situ; format: in vivo; details: for percentage inhibition of contracting effect of CCK-8: single experiments
Description: In order to confirm the evidence of the studies in vitro several of the more interesting compounds were tested in vivo on guinea pig gall baldders in situ.
The method used is that described by Ljungberg (Svensk. Farm. Tidskr. 68, 351-354, 1964).
Guinea pigs having a weight of about 400 g, anaesthetised with urethane, were used; the substances under examination were administered intraveneously into the jugular vein.
The responses of the gall bladders to the substances under test were detected by means of a force transducer and recorded by means of a microdynamometer. The optimum contracting dose was chosen as 10 ng/kg of CCK-8. The antagonist compounds tested were administered in increasing doses so as to enable the calculation of an ED50 value, that is in the dose (in mg/kg i.v.) capable of inhibiting 50% of the contracting effect of 10 ng/kg i.v. of CCK-8.
The results obtained are given in Table 7 below, which gives the doses used and the effects obtained expressed as a percentage inhibition of the contracting effect of CCK-8 as well as the ED50 found.

morphine analgesia = experiment: Increase in analgesia of morphine, Tail Flick Test (Experiment 1); format: in vivo, rats
How it was run: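 Non-fasted male rats (150-200 g); a tail point is exposed to a 75 °C heat source and latency to tail movement recorded, 8 s cut-off. Readings taken before and 10, 20, 30, 45, 60 and 90 min after analgesic treatment; percentage variation calculated per animal.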

[3] = test system: intestinal transit of carbon; experiment: Anti-spastic activity, vegetable carbon intestinal transit test; format: in vivo, mice; details: Mus musculus, ip; read-out: antispastic activity ED50 (dose reducing intestinal transit of carbon by 50%)
Description: The anti-spastic activity which the present compounds exert on the entire digestive system is also notable. Measured in mice with the vegetable carbon test (rate of transit through the stomach and the intestine), this activity is illustrated in the following table.
claimed administered intraperitoneally in mice. Values
expressed as the ED 50 in mg/kg, that is the dose which
reduces the intestinal transit of carbon by 50%

[4] = test system: CCK-8 induced contraction of rabbit colon; experiment: Anti-spastic activity in the colon stimulated by CCK-8; format: in vivo
Description: A much more specific anti-spastic activity, that is adhering much more to a physiological situation, is illustrated by the following experiment.
The abdomen of an anaesthetised rabbit was cut open to show the transverse colon. A small balloon full of water was inserted at the point established and connected to a pressure transducer by means of a polythene cannula filled with water.
The optimum sensitivity was fixed in relation to the physiological conditions and the products were administered through the femoral vein. Contractions were induced by the administration of 100 ng/kg of CCK.

## CCCCN(CCCC)C(=O)C(CCC(=O)O)NC(=O)c1ccc(Cl)c(Cl)c1 (racemic) [Compound C-6, D,L-4-(3,4-dichloro-benzoyl-amino)-5-(di-n-butylamino)-5-oxo-pentanoic acid]
Biliary flow; 3 mg/kg i.v.
  % increase in biliary flow with respect to controls: +40.4%
Biliary flow; 10 mg/kg i.v.
  % increase in biliary flow with respect to controls: +69.8%
Biliary flow; 30 mg/kg i.v.
  % increase in biliary flow with respect to controls: +88.7%
Biliary flow; Rattus norvegicus, iv, average over 2 hours, read-out: ED50 (dose causing 50% increase in biliary flow)
  ED50: 4.2 mg/kg
[1]
  ED50 (concentration antagonising 50% of contracting effect of CCK-8): 0.33 µg/mL
[2]; 0.01 mg/kg i.v.
  percentage inhibition of contracting effect of CCK-8: -12.9%
[2]; 0.03 mg/kg i.v.
  percentage inhibition of contracting effect of CCK-8: -49.7% and -40.0%
[2]; 0.1 mg/kg
  block of gall bladder contractions induced by CCK-8: can block gall bladder contractions induced by CCK-8
[2]; 1 mg/kg i.v.
  percentage inhibition of contracting effect of CCK-8: -100.0%
[2]; Cavia porcellus, iv, CCK-8 10 ng/kg i.v., read-out: ED50 (inhibition of 50% of contracting effect of CCK-8)
  ED50: 0.05 mg/kg
Morphine analgesia; 10', compound 10 mg/kg i.p. + morphine 2 mg/kg
  percentage variation of latency of pain sensation: 89.2%
Morphine analgesia; 20', compound 10 mg/kg i.p. + morphine 2 mg/kg
  percentage variation of latency of pain sensation: 91.3 ± 8.7%
Morphine analgesia; 30', compound 10 mg/kg i.p. + morphine 2 mg/kg
  percentage variation of latency of pain sensation: 83.6 ± 10.0%
Morphine analgesia; 45', compound 10 mg/kg i.p. + morphine 2 mg/kg
  percentage variation of latency of pain sensation: 82.1 ± 16.6%
Morphine analgesia; 60', compound 10 mg/kg i.p. + morphine 2 mg/kg
  percentage variation of latency of pain sensation: 79.8 ± 17.0%
Morphine analgesia; 90', compound 10 mg/kg i.p. + morphine 2 mg/kg
  percentage variation of latency of pain sensation: 38.2%
Morphine analgesia; mean 10-90 min, compound 10 mg/kg i.p. + morphine 2 mg/kg
  M (10-90) ± SE, mean percentage variation of latency: 77.4 ± 19.6%
Morphine analgesia; rat, in vivo
  Power ratio with respect to morphine alone: 2.59
[3]
  ED50: 29.5 mg/kg
[4]; 0.1 mg/kg iv, single experiments
  effect on CCK-8 stimulated colon: 0
[4]; Oryctolagus cuniculus, iv, CCK 100 ng/kg
  ED50: 1.53 mg/kg
